According to PMC7558399, “In Vitro Selective Growth-Inhibitory Activities of Phytochemicals, Synthetic Phytochemical Analogs, and Antibiotics against Diarrheagenic/Probiotic Bacteria and Cancer/Normal Intestinal Cells” (Pharmaceuticals, 2020):
Values after ≈ are worked out from the molar mass of the structure shown. Read-outs that look alike come from different tables or passages of the source.

Columns and labels:
Type in all cases: cell-based
[1] = system: Bacillus cereus (ATCC 14579); assay: Broth microdilution MIC, B. cereus; settings: ATCC14579, growth inhibited by ≥80%, median/mode, read-out: MIC
[2] = system: Clostridium difficile (DSMZ 12056); assay: microbe, parasite or virus in culture; settings: Clostridioides difficile, DSMZ12056
[3] = system: Clostridium perfringens (DSMZ 11778); assay: microbe, parasite or virus in culture; settings: DSMZ11778
[4] = system: Enterococcus faecalis (ATCC 29212); assay: Broth microdilution MIC, E. faecalis; settings: ATCC29212, growth inhibited by ≥80%, read-out: MIC
[5] = system: Escherichia coli (ATCC 25922); assay: Broth microdilution MIC, E. coli; settings: ATCC25922, growth inhibited by ≥80%, read-out: MIC
[6] = system: E. coli 0175:H7 (NCTC 12900); assay: microbe, parasite or virus in culture; settings: Escherichia coli, NCTC12900
[7] = system: Listeria monocytogenes (ATCC 7644); assay: Broth microdilution MIC, L. monocytogenes; settings: ATCC7644, growth inhibited by ≥80%, read-out: MIC
[8] = system: Shigella flexneri (ATCC 12022); assay: microbe, parasite or virus in culture; settings: ATCC12022
[9] = system: Salmonella enterica ssp. enterica serovar Enteritidis (ATCC 13076); assay: Broth microdilution MIC, Salmonella Enteritidis; settings: Salmonella Enteritidis, growth inhibited by ≥80%, read-out: MIC
[10] = system: S. enterica ssp. enterica serovar Typhimurium (ATCC 14028); assay: Broth microdilution MIC, Salmonella Typhimurium; settings: Salmonella Typhimurium, growth inhibited by ≥80%, read-out: MIC
[11] = system: Vibrio parahaemolyticus (ATCC 17802); assay: Broth microdilution MIC, V. parahaemolyticus; settings: ATCC17802, growth inhibited by ≥80%, read-out: MIC
[12] = system: Yersinia enterocolitica (ATCC 9610); assay: Broth microdilution MIC, Y. enterocolitica; settings: ATCC9610, growth inhibited by ≥80%, read-out: MIC
[13] = system: diarrheagenic bacteria (12 strains); assay: microbe, parasite or virus in culture; settings: mean of 12 strains; >512 replaced with 1024; read-out: x¯ -DB ± SD: mean MIC for diarrheagenic bacteria
[14] = system: Bacteroides fragilis (ATCC 25285); assay: Broth microdilution MIC, B. fragilis; settings: ATCC25285, growth inhibited by ≥80%, read-out: MIC
[15] = system: Bifidobacterium adolescentis (DSMZ 20087); assay: Broth microdilution MIC, B. adolescentis; settings: DSMZ20087, growth inhibited by ≥80%, read-out: MIC
[16] = system: Bifidobacterium animalis spp. lactis (DSMZ 10140); assay: Broth microdilution MIC, B. animalis spp. lactis; settings: DSMZ10140; Bifidobacterium animalis spp. lactis; growth inhibited by ≥80%; read-out: MIC
[17] = system: Bifidobacterium bifidum (ATCC 29521); assay: Broth microdilution MIC, B. bifidum; settings: ATCC29521, growth inhibited by ≥80%, read-out: MIC
[18] = system: Bifidobacterium breve (ATCC 15700); assay: Broth microdilution MIC, B. breve; settings: ATCC15700, growth inhibited by ≥80%, read-out: MIC
[19] = system: Bifidobacterium longum ssp. longum (DSMZ 20219); assay: Broth microdilution MIC, B. longum ssp. longum; settings: DSMZ20219; Bifidobacterium longum ssp. longum; growth inhibited by ≥80%; read-out: MIC
[20] = system: Lactobacillus casei (DSMZ 20011); assay: Broth microdilution MIC, L. casei; settings: Lacticaseibacillus casei, DSMZ20011; Lactobacillus casei; growth inhibited by ≥80%; read-out: MIC
[21] = system: Lactobacillus reuteri (CCM 3625); assay: Broth microdilution MIC, L. reuteri; settings: Limosilactobacillus reuteri, CCM3625; Lactobacillus reuteri; growth inhibited by ≥80%; read-out: MIC
[22] = system: Lactobacillus rhamnosus (CCM 7091); assay: Broth microdilution MIC, L. rhamnosus; settings: Lacticaseibacillus rhamnosus, CCM7091; Lactobacillus rhamnosus; growth inhibited by ≥80%; read-out: MIC
[23] = system: probiotic bacteria (9 strains); assay: Broth microdilution MIC, probiotic bacteria as a group (mean or range over strains); settings: mean of 9 strains; >512 replaced with 1024; read-out: x¯ -PB ± SD: mean MIC for probiotic bacteria
[24] = system: HT29 (ATCC HTB 38) intestinal cancer cells; assay: MTT cytotoxicity assay, HT29; settings: Homo sapiens, HT-29, HT29, MTT, 72 h; for IC50: read-out: IC50 ± SD; for IC80: read-out: IC80 ± SD (80% inhibitory concentration of proliferation)
[25] = system: Caco-2 (ATCC HTB 37) intestinal cancer cells; assay: MTT cytotoxicity assay, Caco-2; settings: Homo sapiens, Caco-2, MTT, 72 h; for IC50: read-out: IC50 ± SD; for IC80: read-out: IC80 ± SD (80% inhibitory concentration of proliferation)
[26] = system: intestinal cancer cells (HT29 and Caco-2); assay: MTT cytotoxicity assay, mean for intestinal cancer cells; settings: for IC50: mean of HT29 and Caco-2, >512 replaced with 1024, read-out: x¯ -CC ± SD: mean IC50 for intestinal cancer cells; for IC80: read-out: x¯ -CC ± SD: mean IC80 for intestinal cancer cells
[27] = system: FHs 74 Int (ATCC CCL 241) intestinal normal cells; assay: MTT cytotoxicity assay, FHs 74 Int; settings: FHs74Int, 72 h, FHs 74 Int (intestinal normal cells), MTT; for IC50: read-out: IC50 ± SD; for IC80: read-out: IC80 ± SD (80% inhibitory concentration of proliferation)
[28] = system: 21 strains (diarrheagenic and probiotic bacteria); assay: organism not typed; settings: any of the 21 strains

## COc1ccc2cc3[n+](cc2c1OC)CCc1cc2c(cc1-3)OCO2 [BR, berberine chloride]
[1]
  MIC: > 512 µg/mL
[2]
  MIC: > 512 µg/mL
[3]
  MIC: 256 µg/mL
[4]
  MIC: > 512 µg/mL
[5]
  MIC: > 512 µg/mL
[6]
  MIC: > 512 µg/mL
[7]
  MIC: > 512 µg/mL
[8]
  MIC: > 512 µg/mL
[9]
  MIC: > 512 µg/mL
[10]
  MIC: 512 µg/mL
[11]
  MIC: 512 µg/mL
[12]
  MIC: > 512 µg/mL
[13]
  MIC: 875 ± 256 µg/mL
[14]
  MIC: > 512 µg/mL
[15]
  MIC: 128 µg/mL
[16]
  MIC: 32 µg/mL
[17]
  MIC: 64 µg/mL
[18]
  MIC: 64 µg/mL
[19]
  MIC: 32 µg/mL
[20]
  MIC: 64 µg/mL
[21]
  MIC: > 512 µg/mL
[22]
  MIC: 64 µg/mL
[23]
  MIC: 277 ± 400 µg/mL
[24]
  IC50: 5 ± 1 µg/mL
  IC80: 42.1 ± 7.3 µg/mL
[25]
  IC50: 19.4 ± 2.9 µg/mL
  IC80: 78.9 ± 0.3 µg/mL
[26]
  IC50: 12.2 ± 7 µg/mL
  IC80: 60.5 ± 18.4 µg/mL
[27]
  IC50: 1 ± 0.1 µg/mL
  IC80: 26.4 ± 0.8 µg/mL
[28]
  MIC: ≥ 32 µg/mL

## O=S(=O)(O)c1cc(I)c(O)c2ncccc12 [FRN, 7-iodo-8-hydroxyquinoline-5-sulfonic acid]
[1]
  MIC: 512 µg/mL (≈ 1460 µM)
[2]; Clostridium difficile, […], read-out: MIC
  MIC: 64 µg/mL (≈ 182 µM)
[3]
  MIC: 64 µg/mL (≈ 182 µM)
[4]
  MIC: > 512 µg/mL
[5]
  MIC: > 512 µg/mL
[6]
  MIC: > 512 µg/mL
[7]
  MIC: 512 µg/mL (≈ 1460 µM)
[8]
  MIC: > 512 µg/mL
[9]
  MIC: > 512 µg/mL
[10]
  MIC: > 512 µg/mL
[11]
  MIC: 256 µg/mL (≈ 729 µM)
[12]
  MIC: > 512 µg/mL
[13]
  MIC: 715 ± 388 µg/mL (≈ 2040 µM)
[14]
  MIC: 128 µg/mL (≈ 365 µM)
[15]
  MIC: 256 µg/mL (≈ 729 µM)
[16]
  MIC: 512 µg/mL (≈ 1460 µM)
[17]
  MIC: 512 µg/mL (≈ 1460 µM)
[18]
  MIC: 512 µg/mL (≈ 1460 µM)
[19]
  MIC: 256 µg/mL (≈ 729 µM)
[20]
  MIC: 256 µg/mL (≈ 729 µM)
[21]
  MIC: 512 µg/mL (≈ 1460 µM)
[22]
  MIC: 512 µg/mL (≈ 1460 µM)
[23]
  MIC: 384 ± 148 µg/mL (≈ 1090 µM)
[24]
  IC50: 86.3 ± 12 µg/mL (≈ 246 µM)
  IC80: 149 ± 6 µg/mL (≈ 425 µM)
[25]
  IC50: 55.2 ± 4.8 µg/mL (≈ 157 µM)
  IC80: 140 ± 26 µg/mL (≈ 398 µM)
[26]
  IC50: 70.8 ± 16 µg/mL (≈ 202 µM)
  IC80: 145 ± 4.8 µg/mL (≈ 412 µM)
[27]
  IC50: 22.6 ± 3.3 µg/mL (≈ 64.4 µM)
  IC80: 46 ± 2.2 µg/mL (≈ 131 µM)
[28]
  MIC: ≥ 64 µg/mL
